Where a SMILES comes first, the peptide text is derived from it. [ ]: non-standard residue; d: D form. dGla = N[C@H](CC(C(=O)O)C(=O)O)C(=O)O; Cha = N[C@@H](CC1CCCCC1)C(=O)O
Legend:
[1] = Inhibition of Hepatitis C virus genotype 1a full-length NS3 protease assessed as equilibrium dissociation constant by surface plasmon resonance biosensor-based interaction kinetic analysis; parameters: species or system Hepatitis C virus subtype 1a
[2] = Inhibition of Hepatitis C virus genotype 1b NS3 protease domain assessed as equilibrium dissociation constant by surface plasmon resonance biosensor-based interaction kinetic analysis; parameters: species or system Hepatitis C virus subtype 1b
[3] = Inhibition of Hepatitis C virus genotype 1a full-length NS3 protease assessed as overall/observed affinity by surface plasmon resonance biosensor-based interaction kinetic analysis; parameters: species or system Hepatitis C virus subtype 1a
[4] = Inhibition of Hepatitis C virus genotype 1b full-length NS3 protease assessed as overall/observed affinity by surface plasmon resonance biosensor-based interaction kinetic analysis; parameters: species or system Hepatitis C virus subtype 1b
[5] = Inhibition of Hepatitis C virus genotype 1b NS3 protease domain assessed as overall/observed affinity by surface plasmon resonance biosensor-based interaction kinetic analysis; parameters: species or system Hepatitis C virus subtype 1b
[6] = Inhibition of Hepatitis C virus genotype 1a full-length NS3/NS4A protease assessed as equilibrium dissociation constant by surface plasmon resonance biosensor-based interaction kinetic analysis; parameters: species or system Hepatitis C virus subtype 1a
[7] = Inhibition of Hepatitis C virus genotype 3a full-length NS3 protease assessed as equilibrium dissociation constant by surface plasmon resonance biosensor-based interaction kinetic analysis; parameters: species or system Hepatitis C virus subtype 3a
[8] = Inhibition of Hepatitis C virus genotype 1a full-length NS3/NS4A protease assessed as overall/observed affinity by surface plasmon resonance biosensor-based interaction kinetic analysis; parameters: species or system Hepatitis C virus subtype 1a
[9] = Inhibition of Hepatitis C virus genotype 1b full-length NS3 protease assessed as equilibrium dissociation constant by surface plasmon resonance biosensor-based interaction kinetic analysis; parameters: species or system Hepatitis C virus subtype 1b
[10] = Inhibition of Hepatitis C virus genotype 3a full-length NS3 protease assessed as overall/observed affinity by surface plasmon resonance biosensor-based interaction kinetic analysis; parameters: species or system Hepatitis C virus subtype 3a
[11] = Inhibition of Hepatitis C virus genotype 1b full-length NS3/NS4A protease assessed as overall/observed affinity by surface plasmon resonance biosensor-based interaction kinetic analysis; parameters: species or system Hepatitis C virus subtype 1b
[12] = Inhibition of Hepatitis C virus genotype 1b full-length NS3/NS4A protease assessed as equilibrium dissociation constant by surface plasmon resonance biosensor-based interaction kinetic analysis; parameters: species or system Hepatitis C virus subtype 1b

Row | SMILES | Kd [1] [nM] | Kd [2] [nM] | Kd [3] [nM] | Kd [4] [nM] | Kd [5] [nM] | Kd [6] [nM] | Kd [7] [nM] | Kd [8] [nM] | Kd [9] [nM] | Kd [10] [nM] | Kd [11] [nM] | Kd [12] [nM]
1 | CC[C@H](C)[C@H](NC(=O)[C@H](CC(C)C)NC(=O)[C@@H](CC(C(=O)O)C(=O)O)NC(=O)[C@H](CC(=O)O)NC(C)=O)C(=O)N[C@@H](CC1CCCCC1)C(=O)N[C@@H](CS)C(=O)O (Ac-D[dGla]LI[Cha]C-OH) | 3900 | 7200 | 200 | 5600 | 3300 | 36000 | 1400 | 17000 | 7200 | 870 | 2000 | 5800
2 | CC(C)(C)NC(=O)N[C@H](C(=O)N1C[C@H]2[C@@H]([C@H]1C(=O)NC(CC1CCC1)C(=O)C(N)=O)C2(C)C)C(C)(C)C (stereo partly specified) [BOCEPREVIR] |  | 16000 |  | 90 | 3200 |  | 1700 |  | 16000 | 3.9 | 38 | 7700
3 | COc1ccc2c(O[C@@H]3C[C@H]4C(=O)N[C@]5(C(=O)O)C[C@H]5/C=C\CCCCC[C@H](NC(=O)OC5CCCC5)C(=O)N4C3)cc(-c3csc(NC(C)C)n3)nc2c1 [CILUPREVIR] | 3 | 7.3 | 1.3 | 67 | 2.5 | 2.1 | 3300 | 2.1 | 220 | 160 | 71 | 71
4 | CC(C)(C)OC(=O)N[C@H]1CCCCC/C=C\[C@@H]2C[C@@]2(C(=O)NS(=O)(=O)C2CC2)NC(=O)[C@@H]2C[C@@H](OC(=O)N3Cc4cccc(F)c4C3)CN2C1=O [DANOPREVIR] | 2.5 | 19000 | 0.13 | 1.6 | 10000 | 4 | 21 | 1.6 | 1.6 | 0.52 | 6.5 | 6.5
5 | CCC[C@H](NC(=O)[C@@H]1[C@H]2CCC[C@H]2CN1C(=O)[C@@H](NC(=O)[C@@H](NC(=O)c1cnccn1)C1CCCCC1)C(C)(C)C)C(=O)C(=O)NC1CC1 [TELAPREVIR] | 2000 | 4100 | 340 | 8.5 | 3000 | 14000 | 66000 | 17 | 8.6 | 1000 | 66 | 67

— ChEMBL document CHEMBL3120105, “Identification of weak points of hepatitis C virus NS3 protease inhibitors using surface plasmon resonance biosensor-based interaction kinetic analysis and genetic variants” (J Med Chem, 2014)
